According to patent US6642256B2, “Piperidine derivatives as subtype selective N-Methyl-D-Aspartate antagonists” (Warner-Lambert Company LLC, priority 2000, dated 2003):

Key:
[1] = system: 6-Hydroxydopamine-lesioned rats; assay: 6-OHDA lesioned rat assay (potentiation of L-DOPA-induced contraversive rotation); format: in vivo; conditions: Table 1; po; statistically significant increase in contraversive rotations versus L-DOPA alone (L-DOPA methyl ester 10 mg/kg SC)
From the text: b. The 6-OHDA Lesioned Rat Assay (6-OHDA):
The 6-OHDA model is used to test compounds of the invention for anti-Parkinsonism activity.
(i) 6-OHDA lesioned rat assay protocol:
6-Hydroxydopamine-lesioned rats were used (see Ungerstedt U, Arbuthnott G W: “Quantitative recording of rotational behavior in rats after 6-hydroxy-dopamine lesions of the nigrostraiatal dopamine system”, Brain Res., 1971;24(3):485-493). Adult male Sprague-Dawley rats were anesthetized with chloral hydrate, and unilateral lesions of the nigrostriatal dopamine system were accomplished by infusion of 8 μg of 6-hydroxydopamine HBr (6-OHDA) into the right medial forebrain bundle. Rats were pretreated 30 minutes before surgery with desipramine HCl 25 mg/kg intraperitoneally (IP) to protect noradrenergic neurons, and pargyline 25 mg/kg IP to potentiate the effects of 6-OHDA. A minimum of 3 weeks after surgery, the rotational behavior induced by apomorphine HCL 50 μg/kg administered subcutaneously (SC) was assessed.
(ii) Measurement of animal behavior:
Rotational behavior was measured using an automatic rotometer system (Rotorat Rotational Activity System, MED Associates, Georgia, Vt.). Antiparkinsonian activity was assessed as the ability of the invention compounds to potentiate the contraversive rotation induced by L-DOPA methyl ester, dosed at 10 mg/kg SC, over a 6-hour period. […]

[2] = system: Male Wistar albino rats; assay: Formalin footpad test (FT); format: in vivo, rat; conditions: Table 1; PO; statistically significant decrease in late-phase pain behaviour versus vehicle
Method: a. The Formalin Footpad Test (FT):
The FT model was used to test invention compounds for pain alleviating properties. The model produces a biphasic response in a test animal that results from a change in pain intensity over time. The FT model utilizes an injection of dilute formalin into the hindpaw of a rodent, which produces high intensity acute pain behaviors which are measured for the first 10 minutes post formalin injection (early phase responding). High intensity acute pain behaviors include rapid licking or biting of the injected hindpaw. The second phase is a prolonged period of lower intensity pain behaviors (late phase responding) which are measured from 11 to 45 minutes post-formalin injection.
Male Wistar albino rats (Harlan Sprague-Dawley Labs), weighing approximately 100 g at the time of testing, were used. Animals were group-housed and acclimated to the housing facility for 1 week prior to testing. Animals were maintained on a 12-hour/12-hour light/dark cycle and fed block rodent chow. From 4 to 8 animals were randomly assigned to either a vehicle-only dose group or a vehicle-plus invention compound treatment group on the day of testing.
The testing apparatus was a 16″×8″ box divided into two 8″×8″ testing chambers. Each testing chamber comprised a floor and 3 walls made of clear plastic mirrors, and a fourth wall which was clear plastic that allowed observation of animal behavior. The top of each chamber was covered with a metal screen during testing to prevent animals from climbing out of the chamber. Two animals were tested simultaneously in the adjoining boxes, but animals were unable to observe one another.
Animals were weighed and placed into holding cages (2 animals per cage) in the testing room prior to dosing. Following approximately 30 minutes of acclimation to the testing room, each pair of animals was administered orally (PO) by gavage a mixture of invention compound plus vehicle or vehicle alone. The treated animals were then placed in individual test chambers and allowed to acclimate to the chambers for at least 20 minutes. Then 50 μL of a 2.5% solution of formalin in vehicle was injected subcutaneously (SC) in the plantar surface of the left hindpaw from 30 to 120 minutes after administration of the invention compound. A session timer was started following the formalin injection, and the amount of time the animal spent licking or biting the injected paw was clocked with a hand-held stopwatch. The cumulative time spent engaging in a pain response was manually recorded at 5-minute intervals for 45 minutes post formalin injection. Early phase responding included Minutes 0 to 10, and late phase responding included Minutes 11 to 45. At the end of the testing period, animals were sacrificed using carbon dioxide. […]

SMILES	6-OHDA (mg/kg), minimum effective dose (MED) [1]	FT (mg/kg), active dose [2]
O=c1[nH]c2ccc(C3=NOC(CN4CCC(Cc5ccccc5)CC4)C3)cc2o1 (racemic) [Example 1, 6-[5-(4-Benzylpiperidin-1-ylmethyl)-4,5-dihydroisoxazol-3-yl]-3H-benzoxazol-2-one]	>10 (po) mg/kg	>10 mg/kg
O=c1[nH]c2ccc(C3=NOC(CN4CCC(Cc5ccc(F)cc5)CC4)C3)cc2o1 (single isomer, unassigned; (-)) [Example 4b, (−)-6-{5-[4-(4-Fluorobenzyl)piperidin-1-ylmethyl]4,5-dihydroisoxazol-3-yl}-3H-benzoxazol-2-one]	>30 (po) mg/kg	>30 mg/kg
